Data published in patent US20120010075A1 (priority 2009, published 2012).
Read-outs that look alike come from different tables or passages of the source.

What was measured:
Alternaria solani = assay: Compound 16 and copper materials against tomato early blight (Example 37, Tables 17-20); assay type: in vivo, Alternaria solani on tomato (Outdoor Girl)
[1] = system: Colletotrichum lagenarium; assay: Compound 16 and copper materials against cucumber anthracnose (Example 37, Tables 21-24); assay type: in vivo, Colletotrichum lagenarium on cucumber (Bush Pickle)
Phytophthora infestans [2] = assay type: in vivo, Phytophthora infestans on tomato (Outdoor Girl)
Phytophthora infestans [3] = assay type: in vivo, Phytophthora infestans on tomato; conditions: hydrazone 50 ppm + 50 μM CuCl2.2H2O, applied 24 h before inoculation, assessed 7 days after inoculation, tomato
[4] = system: Leptosphaeria nodorum (LEPTNO); assay: In vitro fungitoxicity of hydrazones with and without copper towards Leptosphaeria nodorum (Example 26); assay type: cell-based; conditions: 72 h at 25° C.; for LEPTNO % Inhn. Plus Copper Observed: copper-plus medium (CuCl2.2H2O)
[5] = system: Leptosphaeria nodorum (LEPTNO); assay: Isolated metal-hydrazone complexes versus parent hydrazones, in vitro, Leptosphaeria nodorum (Example 31, Table 7); assay type: cell-based; conditions: Parastagonospora nodorum; 0.1 μg/mL; copper-minus medium; 72 h
[6] = system: Leptosphaeria nodorum (glume blotch of wheat); assay: Cu-hydrazone complexes versus parent hydrazones against glume blotch of wheat (Example 32, Table 8); assay type: in vivo, Leptosphaeria nodorum on wheat (cultivar Yuma); conditions: Parastagonospora nodorum, 200 ppm spray, inoculated after 24 h
Phytophthora capsici = assay: In vitro fungitoxicity of hydrazones with and without copper towards Phytophthora capsici (Example 28, Table 3); assay type: cell-based; conditions: 0.039 μg/mL, 48 h; for % Inhn Plus copper Observed: copper-plus AS medium (CuCl2, 50 μM); for inhibition of growth at 0.039 µg/mL: Phytophthora capsici, copper-minus AS medium, read-out: % Inhn Minus copper Observed
[7] = Parastagonospora nodorum, 72 h, compound 0.05 μg/mL, copper-minus medium, read-out: LEPTNO % Inhn. Minus Copper Observed

| Structure (SMILES) | TLB % Control (Phytophthora infestans [3]) [%] | inhibition of growth at 0.05 µg/mL [4, 7] [%] | LEPTNO % Inhn. Plus Copper Observed ([4]; compound 0.05 μg/mL) [%] | inhibition at 0.1 µg/mL [5] [%] | pest or weed control at 200 ppm [6] [%] | % Inhn Plus copper Observed (Phytophthora capsici) [%] | inhibition of growth at 0.039 µg/mL (Phytophthora capsici) [%] | melting point [°C] | further results |
| --- | --- | --- | --- | --- | --- | --- | --- | --- | --- |
| O=C(N/N=C/c1cc(Cl)cc(Cl)c1O)c1ccccc1 [Compound 16] | – | – | – | – | – | – | – | – | % Control of Tomato Early Blight (Alternaria solani; hydrazone 10 μM alone): 3.9%; % Control of Tomato Early Blight (Alternaria solani; hydrazone 50 μM alone): 8%; % Control of Tomato Early Blight (Alternaria solani; hydrazone 200 μM alone): 28.4%; % Control of Tomato Early Blight (Alternaria solani; hydrazone 400 μM alone): 32.4%; % Control of Cucumber Anthracnose ([1]; hydrazone 10 μM alone): 10%; % Control of Cucumber Anthracnose ([1]; hydrazone 50 μM alone): 33.8%; % Control of Cucumber Anthracnose ([1]; hydrazone 200 μM alone): 63.8%; % Control of Cucumber Anthracnose ([1]; hydrazone 400 μM alone): 70.8%; % Control of Tomato Late Blight (Phytophthora infestans [2]; hydrazone 10 μM alone): 1.5%; % Control of Tomato Late Blight (Phytophthora infestans [2]; hydrazone 50 μM alone): 11.3%; % Control of Tomato Late Blight (Phytophthora infestans [2]; hydrazone 200 μM alone): 21.4%; % Control of Tomato Late Blight (Phytophthora infestans [2]; hydrazone 400 μM alone): 25.7% |
| O=C(N/N=C/c1cc(Cl)cc(Cl)c1O)c1ccccc1Br [Example 84] | 83.6 | 5.6 | 95.5 | 6.7 | 37 | 95.0 | 47.5 | – | – |
| O=C(N/N=C/c1cc(Cl)cc(Cl)c1O)c1cccc(Cl)c1 [Example 70] | 93.1 | 19.6 | 98.2 | 29.4 | 0 | – | – | – | – |
| O=C(N/N=C/c1cc(Cl)cc(Cl)c1O)c1ccc(OC(F)(F)F)cc1 [Example 100] | 74.2 | 8.2 | 97.0 | 24.7 | 0 | 88.8 | 10 | 220 to 229 | – |
| O=C(N/N=C/c1cc(Cl)cc(Cl)c1O)c1c(Cl)cccc1Cl [Example 43] | 68.8 | – | – | 3.6 | 0 | 90.3 | 54.2 | 250 to 252 | inhibition of growth at 0.156 µg/mL ([4]; Parastagonospora nodorum, 72 h, compound 0.156 μg/mL, copper-minus medium, read-out: LEPTNO % Inhn. Minus Copper Observed): 14.2%; LEPTNO % Inhn. Plus Copper Observed ([4]; compound 0.156 μg/mL): 75.4% |
